Results: paper PMC7617869, “Molecular glues that inhibit deubiquitylase activity and inflammatory signaling” (Nature Structural & Molecular Biology, 2025)
Several values for one entry are separate records, joined by “and”; a condition that tells them apart may be missing. Identical values can stand only once.

Experiments:
Type in all cases: biochemical
MmBRISC = molecular target: T1, MmBRISC (Mus musculus, UniProt P46737+Q3TCJ1+Q8K3W0); experiment: MmBRISC IQF DUB activity assay; conditions: read-out: Normalised V0
T1 construct: made in house; host or cells: Trichoplusia ni cells (Bac-to-Bac, pFastBac-HTB)
Method: (§1) IQF assays were performed in DUB reaction buffer containing 50 mM HEPES–NaOH pH 7.0, 100 mM NaCl, 0.1 mg ml^−1 BSA, 1 mM DTT and 0.03% v/v Brij-35. […] The final concentration of BRISC WT, all BRISC mutants, HsBRISCΔLoop, MmBRISC and DrBRISCΔNΔC was 1 nM. Other enzymes were tested at the following concentrations: 5 nM ARISC (FL), 10 nM CfBRISCΔNΔC, 250 nM AMSH* (ref. [43]), 500 nM USP2 and 1 μM trypsin (Sigma, 9002-07-7). For Michaelis–Menten experiments, 1 nM BRISC with 0–1 μM IQF K63-linked diubiquitin substrate was used. Michaelis–Menten analyses and Lineweaver–Burk plots were calculated using GraphPad Prism (version 9.0).
(§2) To assess enzymatic activity, BRISC complexes were diluted to concentrations between 1 nM and 50 nM. […] Then, 20-μl enzyme reactions were carried out in 384-well black flat-bottom low-flange plates (Corning, 35373). DUB activity was measured using IQF K63-linked diubiquitin (LifeSensors, DU6303) at 50 nM. Cleaved diubiquitin was monitored by measuring fluorescence intensity (excitation, 544 nm; emission, 575 nm; dichroic mirror, 560 nm). Fluorescence intensity was measured every minute for 30 min at 30 °C. Fluorescence intensity units were plotted against time to generate a linear reaction progress curve, where the initial velocity (V0) corresponds to the gradient of the curve (typically achieved within 15 min). IC50 values were calculated using the GraphPad Prism (version 9.0) built-in dose–response equation for inhibitor concentration versus response (variable slope).

BRISC BRCC36 L169R = BRISC BRCC36 L169R (Homo sapiens, UniProt P46736+Q15018+Q9NXR7, L169R); experiment: BRISC mutant IQF assay: BRCC36 L169R
Method: as §1, §2

BRISC BRCC36 L169W = BRISC BRCC36 L169W (Homo sapiens, UniProt P46736+Q15018+Q9NXR7, L169W); experiment: BRISC mutant IQF assay: BRCC36 L169W
Method: as §1, §2

BRISC Abraxas2 T135K = BRISC Abraxas2 T135K (Homo sapiens, UniProt P46736+Q15018+Q9NXR7, T135K); experiment: BRISC mutant IQF assay: Abraxas2 T135K
Method: as §1, §2

BRISC BRCC45 R137A = BRISC BRCC45 R137A (Homo sapiens, UniProt P46736+Q15018+Q9NXR7, R137A); experiment: BRISC mutant IQF assay: BRCC45 R137A
Method: as §1, §2

BRISC BRCC45 F140A = BRISC BRCC45 F140A (Homo sapiens, UniProt P46736+Q15018+Q9NXR7, F140A); experiment: BRISC mutant IQF assay: BRCC45 F140A
Method: as §1, §2

BRISC = molecular target: T2, BRISC (Homo sapiens, UniProt P46736+Q15018+Q9NXR7); experiment: Compound library screening and hit validation (IQF diubiquitin, 1 nM BRISC); conditions: for BRISC, normalised activity (Ext. 1a): two replicate columns
T2 construct: made in house; host or cells: Spodoptera frugiperda (Sf9) insect cells, MultiBac
Method: Assays were performed in 384-well black flat-bottom low-flange plates (Corning, 35373) in buffer containing 50 mM HEPES–NaOH pH 7.0, 100 mM NaCl, 1 mg ml^−1 BSA, 1 mM DTT and 0.03% v/v Brij-35. Then, 10 μl of twofold concentrated enzyme stock was dispensed, followed by transfer of 200 nl of compounds (1 mM stock) using a 384-pin tool and a 15-min incubation at room temperature. Then, 10 μl of twofold concentrated substrate stock was added and the reaction was monitored by measuring fluorescence intensity (excitation, 540 nm; emission, 580 nm) after 20-min incubation at room temperature and ~50% of substrate was consumed. Orthogonal assays for verification of H20 and P12 hit compounds using USP2 (100 nM) and trypsin (125 nM) were performed in identical conditions.

[1] = FX-171-C 0.0035 μM, read-out: Normalised V0
[2] = FX-171-C 0.035 μM, read-out: Normalised V0
[3] = FX-171-C 0.35 μM, read-out: Normalised V0
[4] = FX-171-C 3.1 μM, read-out: Normalised V0
[5] = FX-171-C 25 μM, read-out: Normalised V0
[6] = FX-171-C 6.25 μM, read-out: Normalised V0
[7] = FX-171-C 12.5 μM, read-out: Normalised V0

T1 sequence (P46737 whole entry): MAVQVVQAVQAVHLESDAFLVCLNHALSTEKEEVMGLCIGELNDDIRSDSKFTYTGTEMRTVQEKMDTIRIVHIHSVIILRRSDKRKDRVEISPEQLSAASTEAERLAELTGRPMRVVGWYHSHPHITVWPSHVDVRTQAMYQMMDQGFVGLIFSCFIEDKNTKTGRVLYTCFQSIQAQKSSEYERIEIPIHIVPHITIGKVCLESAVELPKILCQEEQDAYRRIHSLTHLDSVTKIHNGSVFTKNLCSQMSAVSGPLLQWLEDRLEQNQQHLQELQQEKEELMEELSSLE
T1 sequence (Q3TCJ1 whole entry): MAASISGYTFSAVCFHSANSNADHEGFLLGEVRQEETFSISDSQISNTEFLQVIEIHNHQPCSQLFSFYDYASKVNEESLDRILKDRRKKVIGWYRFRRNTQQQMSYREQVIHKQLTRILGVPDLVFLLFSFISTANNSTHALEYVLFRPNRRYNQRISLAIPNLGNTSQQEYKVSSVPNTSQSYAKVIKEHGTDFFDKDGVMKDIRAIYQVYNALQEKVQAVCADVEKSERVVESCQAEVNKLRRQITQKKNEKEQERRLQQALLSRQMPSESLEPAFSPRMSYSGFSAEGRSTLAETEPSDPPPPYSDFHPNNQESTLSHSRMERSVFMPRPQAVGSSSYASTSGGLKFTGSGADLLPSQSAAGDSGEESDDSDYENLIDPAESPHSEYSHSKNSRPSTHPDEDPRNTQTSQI
T1 sequence (Q8K3W0 whole entry): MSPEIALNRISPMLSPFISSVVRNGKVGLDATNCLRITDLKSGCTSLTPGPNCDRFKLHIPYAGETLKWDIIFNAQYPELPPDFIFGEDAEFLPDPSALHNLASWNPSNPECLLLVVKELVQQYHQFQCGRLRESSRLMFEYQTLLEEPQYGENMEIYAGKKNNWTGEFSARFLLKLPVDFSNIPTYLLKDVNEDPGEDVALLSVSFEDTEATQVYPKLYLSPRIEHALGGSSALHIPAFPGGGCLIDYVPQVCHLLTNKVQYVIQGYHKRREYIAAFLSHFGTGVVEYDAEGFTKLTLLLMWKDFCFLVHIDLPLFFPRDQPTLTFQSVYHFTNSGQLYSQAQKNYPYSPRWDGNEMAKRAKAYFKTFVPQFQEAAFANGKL
T1 sequence (Q3UI43 whole entry partner): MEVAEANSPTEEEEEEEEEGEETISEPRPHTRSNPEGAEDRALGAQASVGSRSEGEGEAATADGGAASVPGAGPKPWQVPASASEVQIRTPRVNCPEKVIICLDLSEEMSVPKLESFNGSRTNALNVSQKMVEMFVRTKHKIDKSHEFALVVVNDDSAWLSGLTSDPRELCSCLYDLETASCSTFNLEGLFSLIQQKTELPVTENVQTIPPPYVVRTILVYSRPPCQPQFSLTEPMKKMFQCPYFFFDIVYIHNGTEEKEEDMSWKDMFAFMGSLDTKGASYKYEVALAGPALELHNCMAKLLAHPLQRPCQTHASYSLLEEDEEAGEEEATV

In the case of O=C(NC1C2CNCC21)c1nn(C(=O)c2c(Cl)cccc2Cl)cc1NC(=O)c1c(Cl)cccc1Cl (stereo not shown) [FX-171-C], the remaining activity at 0.02 µM (MmBRISC; FX-171-C 0.02 μM) is reported as 101%, the remaining activity at 0.0399999 µM (MmBRISC; FX-171-C 0.0399999 μM) is reported as 89.4% and the remaining activity at 0.0599997 µM (MmBRISC; FX-171-C 0.0599997 μM) is reported as 106%. The remaining activity at 0.0799994 µM (MmBRISC; FX-171-C 0.0799994 μM) was 102%, the remaining activity at 0.119998 µM (MmBRISC; FX-171-C 0.119998 μM) was 107% and the remaining activity at 0.199996 µM (MmBRISC; FX-171-C 0.199996 μM) was 106%. For the same compound, the remaining activity at 0.499975 µM (MmBRISC; FX-171-C 0.499975 μM) was 94.9%, the remaining activity at 0.799937 µM (MmBRISC; FX-171-C 0.799937 μM) was 98% and the remaining activity at 1.25984 µM (MmBRISC; FX-171-C 1.25984 μM) was 89.8%. The remaining activity at 1.9996 µM (MmBRISC; FX-171-C 1.9996 μM) was 97.6%, the remaining activity at 3.159 µM (MmBRISC; FX-171-C 3.159 μM) was 92.5% and the remaining activity at 5.19739 µM (MmBRISC; FX-171-C 5.19739 μM) was 87.1%. For the same compound, the remaining activity at 7.99364 µM (MmBRISC; FX-171-C 7.99364 μM) was 68.2%, the remaining activity at 12.7839 µM (MmBRISC; FX-171-C 12.7839 μM) was 57.7% and the remaining activity at 19.96 µM (MmBRISC; FX-171-C 19.96 μM) was 43.1%. The remaining activity at 31.4999 µM (MmBRISC; FX-171-C 31.4999 μM) was 34%, the remaining activity at 50.147 µM (MmBRISC; FX-171-C 50.147 μM) was 24.4% and the remaining activity at 79.7601 µM (MmBRISC; FX-171-C 79.7601 μM) was 22.6%. The remaining activity at 125.99 µM (MmBRISC; FX-171-C 125.99 μM) was 12%, the IC50 (BRISC BRCC36 L169R) was 75 µM and the “reduction of inhibition over wild-type complex” value (BRISC BRCC36 L169R) was > 100 fold. The remaining activity at 0.0035 µM (BRISC BRCC36 L169R; [1]) was 98.8%, the remaining activity at 0.035 µM (BRISC BRCC36 L169R; [2]) was 96.8% and the remaining activity at 0.35 µM (BRISC BRCC36 L169R; [3]) was 93.7%. It also gave a remaining activity at 3.1 µM (BRISC BRCC36 L169R; [4]) of 89.5%, a remaining activity at 25 µM (BRISC BRCC36 L169R; [5]) of 88% and an IC50 (BRISC BRCC36 L169W) of 91 µM. The “reduction of inhibition over wild-type complex” value (BRISC BRCC36 L169W) was > 100 fold, the remaining activity at 0.0035 µM (BRISC BRCC36 L169W; [1]) was 94% and the remaining activity at 0.035 µM (BRISC BRCC36 L169W; [2]) was 91.9%. It also gave a remaining activity at 0.35 µM (BRISC BRCC36 L169W; [3]) of 94%, a remaining activity at 3.1 µM (BRISC BRCC36 L169W; [4]) of 93.5% and a remaining activity at 6.25 µM (BRISC BRCC36 L169W; [6]) of 90.3%. For the same compound, the remaining activity at 12.5 µM (BRISC BRCC36 L169W; [7]) was 89.8%, the remaining activity at 25 µM (BRISC BRCC36 L169W; [5]) was 93.8% and the remaining activity at 50 µM (BRISC BRCC36 L169W; FX-171-C 50 μM, read-out: Normalised V0) was 84.8%. The IC50 (BRISC Abraxas2 T135K) was 1.5 µM, the “inhibitor sensitivity vs BRISC WT” value (BRISC Abraxas2 T135K) was “moderate to little effect on inhibitor sensitivity” and the remaining activity at 0.35 µM (BRISC Abraxas2 T135K; [3]) was 73.4%. For the same compound, the remaining activity at 3.1 µM (BRISC Abraxas2 T135K; [4]) was 20.9%, the IC50 (BRISC BRCC45 R137A) was > 100 µM and the “inhibitor sensitivity vs BRISC WT” value (BRISC BRCC45 R137A) was “reduced sensitivity to inhibition”. It also gave a remaining activity at 12.5 µM (BRISC BRCC45 R137A; [7]) of 87.5%, a remaining activity at 25 µM (BRISC BRCC45 R137A; [5]) of 80.1% and an IC50 (BRISC BRCC45 F140A) of 4.3 µM. The “inhibitor sensitivity vs BRISC WT” value (BRISC BRCC45 F140A) was “reduced sensitivity to inhibition”, the remaining activity at 0.0035 µM (BRISC BRCC45 F140A; [1]) was 96% and the remaining activity at 0.035 µM (BRISC BRCC45 F140A; [2]) was 92.5%. The remaining activity at 0.35 µM (BRISC BRCC45 F140A; [3]) was 89.9%, the remaining activity at 3.1 µM (BRISC BRCC45 F140A; [4]) was 51.2% and the remaining activity at 6.25 µM (BRISC BRCC45 F140A; [6]) was 43.9%. For the same compound, the remaining activity at 12.5 µM (BRISC BRCC45 F140A; [7]) was 26.9%, the remaining activity at 25 µM (BRISC BRCC45 F140A; [5]) was 14.2% and the remaining activity at 100 µM (BRISC BRCC45 F140A; FX-171-C 100 μM, read-out: Normalised V0) was 5.06%.

With O=C(NC1CCNCC1)c1nn(C(=O)c2c(Cl)cccc2Cl)cc1NC(=O)c1c(Cl)cccc1Cl [JMS-175-2] the “inhibition of BRISC, hit validation dose response” value (BRISC; BRISC 1 nM) was “selective inhibition”, the “BRISC, normalised activity (Ext. 1a)” value (BRISC; log [compound (μM)] 0.1938, listed as H20) was 0.7394 and 0.8570 and the “BRISC, normalised activity (Ext. 1a)” value (BRISC; log [compound (μM)] 0.4949, listed as H20) was 0.6725 and 0.7111. The “BRISC, normalised activity (Ext. 1a)” value (BRISC; log [compound (μM)] 0.7959, listed as H20) was 0.4328 and 0.4373, the “BRISC, normalised activity (Ext. 1a)” value (BRISC; log [compound (μM)] 1.0969, listed as H20) was 0.3601 and 0.3685 and the “BRISC, normalised activity (Ext. 1a)” value (BRISC; log [compound (μM)] 1.3979, listed as H20) was 0.2929 and 0.2927. The “BRISC, normalised activity (Ext. 1a)” value (BRISC; log [compound (μM)] 1.6990, listed as H20) was 0.2472 and 0.2252, the “BRISC, normalised activity (Ext. 1a)” value (BRISC; log [compound (μM)] 2.0000, listed as H20) was 0.2296 and 0.2103 and the “BRISC, normalised activity (Ext. 1a)” value (BRISC; log [compound (μM)] 2.3010, listed as H20) was 0.2316 and 0.1815. For the same compound, the “BRISC, normalised activity (Ext. 1a)” value (BRISC; log [compound (μM)] -0.1072, listed as H20) was 0.9797 and 1.0152, the “BRISC, normalised activity (Ext. 1a)” value (BRISC; log [compound (μM)] -0.4082, listed as H20) was 1.0306 and 1.0024 and the “BRISC, normalised activity (Ext. 1a)” value (BRISC; log [compound (μM)] -0.7093, listed as H20) was 1.0136 and 1.0571. The “BRISC, normalised activity (Ext. 1a)” value (BRISC; log [compound (μM)] -1.7100, normalisation point) was 1.0000, the “normalised V0, Mean” value (BRISC; log[compound (μM)] 0.1931) was 0.7989 and the “normalised V0, Mean” value (BRISC; log[compound (μM)] 0.4942) was 0.6361. The “normalised V0, Mean” value (BRISC; log[compound (μM)] 0.7959) was 0.4437, the “normalised V0, Mean” value (BRISC; log[compound (μM)] 1.0969) was 0.3773 and the “normalised V0, Mean” value (BRISC; log[compound (μM)] 1.3979) was 0.3064. For the same compound, the “normalised V0, Mean” value (BRISC; log[compound (μM)] 1.6990) was 0.2332, the “normalised V0, Mean” value (BRISC; log[compound (μM)] 2.0000) was 0.2301 and the “normalised V0, Mean” value (BRISC; log[compound (μM)] 2.3010) was 0.1610. For the same compound, the “normalised V0, Mean” value (BRISC; log[compound (μM)] -0.1079) was 0.9141, the “normalised V0, Mean” value (BRISC; log[compound (μM)] -0.4089) was 0.9318 and the “normalised V0, Mean” value (BRISC; log[compound (μM)] -0.7212) was 0.9518. For the same compound, the “normalised V0, Mean” value (BRISC; log[compound (μM)] -1.7212, normalisation point) was 1.0000.
